Target: human DGAT2 (hDGAT2) (Homo sapiens (Human), UniProt Q96PD7)
Assay: DGAT2 enzymatic activity assay (triolein formation, LC/MS/MS)
Format: biochemical
Conditions: Sf-9 membrane prep expressing hDGAT2; 25 μM diolein, 10 μM oleoyl-CoA; triolein by LC/MS/MS
Procedure, shortened: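 Membranes from Sf-9 cells infected with untagged baculovirus hDGAT2 were incubated at rt in 100 mM Tris.Cl pH 7.0, 20 mM MgCl2, 5% ethanol with 25 μM diolein and 10 μM oleoyl-CoA (10 ng/μL membrane). Triolein was quantified by LC/MS/MS against internal standard; IC50 by 4-parameter sigmoidal fit.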

Chain of human DGAT2 (hDGAT2) (Q96PD7 whole entry): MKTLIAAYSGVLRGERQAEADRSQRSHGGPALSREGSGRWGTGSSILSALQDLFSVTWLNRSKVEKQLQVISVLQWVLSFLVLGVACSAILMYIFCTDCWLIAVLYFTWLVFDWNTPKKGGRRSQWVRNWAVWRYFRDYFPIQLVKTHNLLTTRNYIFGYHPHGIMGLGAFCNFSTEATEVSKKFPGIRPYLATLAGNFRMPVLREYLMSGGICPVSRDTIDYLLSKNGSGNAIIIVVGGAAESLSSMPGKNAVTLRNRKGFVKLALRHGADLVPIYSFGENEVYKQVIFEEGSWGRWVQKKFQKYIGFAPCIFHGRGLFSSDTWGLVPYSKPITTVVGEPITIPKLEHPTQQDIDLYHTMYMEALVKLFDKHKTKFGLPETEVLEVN

| Structure (SMILES) | IC50 [nM] |
| --- | --- |
| CC(C)(CN1CCOCC1)NC(=O)c1ccc2c(-c3ccccc3Cl)cn(-c3ccc(F)cc3)c2c1 [Example 4, 3-(2-chlorophenyl)-1-(4-fluorophenyl)-N-(2-methyl-1-morpholinopropan-2-yl)-1H-indole-6-carboxamide] | 629 |
| O=C(N[C@H](CO)c1ccc(C(F)(F)F)nc1)c1ccc2c(-c3ccccc3Cl)cn(-c3ccc(F)cc3)c2c1 [Example 5, (S)-3-(2-chlorophenyl)-1-(4-fluorophenyl)-N-(2-hydroxy-1-(6-(trifluoromethyl)pyridin-3-yl)ethyl)-1H-indole-6-carboxamide] | 190 |
| C[C@H](NC(=O)c1ccc2c(-c3ccccc3Cl)cn(-c3ccc(F)cc3)c2c1)c1ccc(C(F)(F)F)nc1 [Example 6, (S)-3-(2-chlorophenyl)-1-(4-fluorophenyl)-N-(1-(6-(trifluoromethyl)pyridin-3-yl)ethyl)-1H-indole-6-carboxamide] | 476 |
| C[C@@H](NC(=O)c1ccc2c(-c3ccccc3Cl)cn(-c3ccc(F)cc3)c2c1)c1ccc(C(F)(F)F)nc1 [Example 7, (R)-3-(2-chlorophenyl)-1-(4-fluorophenyl)-N-(1-(6-(trifluoromethyl)pyridin-3-yl)ethyl)-1H-indole-6-carboxamide] | 671 |

These reach a lower IC50. Values come first.

| IC50 [nM] | Structure (SMILES) |
| --- | --- |
| 28 | CC1(NC(=O)c2ccc3c(-c4ccccc4Cl)cn(-c4ncc(F)cn4)c3c2)CCS(=O)(=O)C1 (single isomer, unassigned; enantiomer b) [Example 15-B, 3-(2-chlorophenyl)-1-(5-fluoropyrimidin-2-yl)-N-(3-methyl-1,1-dioxidotetrahydrothiophen-3-yl)-1H-indole-6-carboxamide (enantiomer B, slow)] |
| 0.91 | CC1(NC(=O)c2ccc3c(-c4cccc(OC(F)F)c4)cn(-c4ncc(F)cn4)c3c2)CCS(=O)(=O)C1 (single isomer, unassigned; enantiomer b) [Example 18-B, 3-(3-(difluoromethoxy)phenyl)-1-(5-fluoropyrimidin-2-yl)-N-(3-methyl-1,1-dioxidotetrahydrothiophen-3-yl)-1H-indole-6-carboxamide (enantiomer B)] |
